Test results from ChEMBL document CHEMBL4004843, “"Addition" and "Subtraction": Selectivity Design for Type II Maternal Embryonic Leucine Zipper Kinase Inhibitors” (J Med Chem, 2017).

How the values were obtained:
[1] = biological target: Maternal embryonic leucine zipper kinase (Homo sapiens, UniProt Q14680); experiment: Inhibition of MELK (unknown origin) containing kinase domain and UBA domain using STK S1 as substrate after 20 mins by HTRF assay
[2] = biological target: Rho-associated protein kinase 2 (Homo sapiens, UniProt O75116); experiment: Inhibition of ROCK2 (unknown origin)
Sequence of Rho-associated protein kinase 2 (O75116 whole entry): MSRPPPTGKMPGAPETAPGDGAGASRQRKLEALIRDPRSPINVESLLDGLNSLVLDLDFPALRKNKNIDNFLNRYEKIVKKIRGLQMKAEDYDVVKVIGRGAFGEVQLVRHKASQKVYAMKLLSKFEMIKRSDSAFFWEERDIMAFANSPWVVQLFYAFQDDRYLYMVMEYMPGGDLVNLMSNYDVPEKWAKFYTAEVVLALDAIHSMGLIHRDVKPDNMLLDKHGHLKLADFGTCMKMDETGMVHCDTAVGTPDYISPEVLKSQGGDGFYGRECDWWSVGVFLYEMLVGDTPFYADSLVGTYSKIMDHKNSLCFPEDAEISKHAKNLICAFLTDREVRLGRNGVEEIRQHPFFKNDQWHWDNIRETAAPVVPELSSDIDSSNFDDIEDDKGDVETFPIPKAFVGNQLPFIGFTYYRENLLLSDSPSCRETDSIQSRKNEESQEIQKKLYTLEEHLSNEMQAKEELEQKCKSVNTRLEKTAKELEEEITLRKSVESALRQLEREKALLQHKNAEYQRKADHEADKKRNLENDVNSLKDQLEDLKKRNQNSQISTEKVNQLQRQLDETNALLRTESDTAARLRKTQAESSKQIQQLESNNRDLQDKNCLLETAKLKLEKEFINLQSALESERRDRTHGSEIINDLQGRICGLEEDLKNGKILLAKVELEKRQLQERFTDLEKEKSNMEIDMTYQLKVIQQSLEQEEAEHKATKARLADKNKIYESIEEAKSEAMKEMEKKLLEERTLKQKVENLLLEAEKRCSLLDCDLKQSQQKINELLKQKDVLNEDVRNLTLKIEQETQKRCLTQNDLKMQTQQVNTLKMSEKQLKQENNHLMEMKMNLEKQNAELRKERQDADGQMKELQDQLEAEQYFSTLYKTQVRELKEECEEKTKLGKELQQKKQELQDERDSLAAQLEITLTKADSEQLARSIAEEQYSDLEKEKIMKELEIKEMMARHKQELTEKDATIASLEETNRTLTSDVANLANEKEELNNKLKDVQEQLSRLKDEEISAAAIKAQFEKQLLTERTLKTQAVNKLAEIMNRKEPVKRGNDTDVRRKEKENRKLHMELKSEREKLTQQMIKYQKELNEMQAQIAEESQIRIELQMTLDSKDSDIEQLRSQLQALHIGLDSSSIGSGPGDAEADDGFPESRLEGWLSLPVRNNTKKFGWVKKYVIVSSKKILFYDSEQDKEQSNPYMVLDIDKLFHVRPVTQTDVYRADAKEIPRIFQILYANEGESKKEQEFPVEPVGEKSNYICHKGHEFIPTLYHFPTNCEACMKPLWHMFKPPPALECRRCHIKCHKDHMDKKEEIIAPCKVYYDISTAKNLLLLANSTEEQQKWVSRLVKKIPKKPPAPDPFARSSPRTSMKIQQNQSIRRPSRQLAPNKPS

Sequence of Maternal embryonic leucine zipper kinase (Q14680 whole entry, the tested form may be a part): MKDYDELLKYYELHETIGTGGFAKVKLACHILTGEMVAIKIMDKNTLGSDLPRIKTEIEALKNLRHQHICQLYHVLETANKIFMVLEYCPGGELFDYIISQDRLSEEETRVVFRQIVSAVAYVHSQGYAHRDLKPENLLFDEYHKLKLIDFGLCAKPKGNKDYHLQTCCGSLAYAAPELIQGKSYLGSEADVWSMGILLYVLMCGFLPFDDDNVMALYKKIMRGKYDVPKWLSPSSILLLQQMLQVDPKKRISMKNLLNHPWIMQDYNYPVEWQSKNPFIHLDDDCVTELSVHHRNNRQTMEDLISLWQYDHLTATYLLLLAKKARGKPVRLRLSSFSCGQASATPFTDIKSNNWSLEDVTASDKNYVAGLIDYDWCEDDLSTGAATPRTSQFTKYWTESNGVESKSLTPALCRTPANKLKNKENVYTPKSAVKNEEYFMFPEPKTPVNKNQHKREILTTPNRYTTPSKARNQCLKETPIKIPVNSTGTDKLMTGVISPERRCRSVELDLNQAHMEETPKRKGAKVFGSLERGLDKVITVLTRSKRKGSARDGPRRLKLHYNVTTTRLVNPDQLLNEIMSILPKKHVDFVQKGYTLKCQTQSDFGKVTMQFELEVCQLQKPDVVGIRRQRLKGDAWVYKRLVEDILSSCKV

IC50 [1]	IC50 [2]	Structure (SMILES)
120 nM	–	CNc1ncc(-c2ccc(C(=O)NCC(=O)Nc3ccccc3)cc2)c(OCC2CCNCC2)n1
9.2 nM	–	CNc1ncc(-c2ccc(C(=O)NCc3nc4ccccc4[nH]3)cc2)c(OCC2CCNCC2)n1
1.5 nM	7800 nM	COc1ccc2nc(CNC(=O)c3ccc(-c4cnccc4OCC4CCNCC4)cc3)[nH]c2c1
0.15 nM	–	COc1ccc2nc(CNC(=O)c3ccc(-c4cnc(Nc5ccccc5)nc4OCC4CCNCC4)cc3)[nH]c2c1
8.8 nM	–	O=C(CNC(=O)c1ccc(-c2cnc(Nc3ccccc3)nc2OCC2CCNCC2)cc1)Nc1ccccc1
1.1 nM	–	O=C(NCc1nc2ccccc2[nH]1)c1ccc(-c2cnc(Nc3ccccc3)nc2OCC2CCNCC2)cc1
1.5 nM	–	CNc1ncc(-c2ccc(C(=O)NCc3nc4ccc(OC)cc4[nH]3)cc2)c(OCC2CCNCC2)n1
740 nM	360 nM	O=C(CNC(=O)c1ccc(-c2cnccc2OCC2CCNCC2)cc1)Nc1ccccc1
12 nM	–	O=C(NCc1nc2ccccc2[nH]1)c1ccc(-c2cnccc2OCC2CCNCC2)cc1
